In patent US20200138829A1, “METHODS OF CANCER TREATMENT” (Ferro Therapeutics, Inc., priority 2017, published 2020):
Counter-ions that a name gives are not always drawn. Like-named read-outs stand apart in the source and are kept apart here. Blank lines part the entries; values can stand above or below the compound they belong to. * marks the point of attachment. Cbz = O=C(OCc1ccccc1)*; CH2F = FC*

Assays:
Capan-1 cells [1] = assay: Combination proliferation assay with PKC activator, Capan-1; assay type: cell-based
Protocol: (§1) Cell viability assay was performed to assess the potency of the ferroptosis inducer compounds in various cancer cell lines with K-Ras mutations. Cells at a density of 1,000-10,000 cells/well were seeded in 96-well plates and incubated at 37° C. overnight. A series of 9 different concentrations of compound stocks (500×) were created by 3-fold serial dilution in DMSO. These compounds were further diluted in culture media and then added to cells so that the final DMSO concentration was equal to 0.25% or less. After 96 hours of incubation, 50 μL of CellTiter Glo reagent (Promega) was added to each well and luminescence was measured after 10 minutes using EnVision (PerkinElmer). K101A (a PKC activator) was used as the reference compound titrated from top concentration of 30 μM. All compounds were tested initially from 30 μM as the top concentration in duplicates (range of 4.6 nM-30 μM). […] Data was analyzed using XL-fit software (ID Business Solutions Ltd.). IC50, relative IC50, or % of top inhibition was calculated.
(§2) Therefore, whether PKC activators synergize or antagonize with ferroptosis inducers can be tested empirically.

KP-4 cells [2] = assay: Combination proliferation assay with PKC activator, KP-4; assay type: cell-based
Protocol: as §1, §2

Mino cell line = assay: Combination proliferation assay with PKC activator, Mino; assay type: cell-based
Protocol: as §1, §2
(§3) Therefore, it is of interest to test combination treatment of both classes of compounds in lymphoma cells.

Panc2.13 cells [3] = assay: Combination proliferation assay with PKC activator, Panc2.13; assay type: cell-based
Protocol: as §1, §2

Panc1 cells = assay: Combination proliferation assay with PKC activator, Panc1; assay type: cell-based
Protocol: as §1, §2

Namalwa cell line = assay: Combination proliferation assay with PKC activator, Namalwa; assay type: cell-based
Protocol: as §1, §2, §3

A549 cells [4] = assay: Combination proliferation assay with PKC activator, A549; assay type: cell-based; settings: inducer at concentration with minimal or no effect alone
Protocol: as §1, §2

[5] = tested on: A549 lung cancer cell line; assay: Cell viability assay (CellTiter Glo), A549; assay type: cell-based
Protocol: (§4) Cell viability assay was performed to assess the potency of the ferroptosis inducer compounds in various cancer cell lines with K-Ras mutations. […] A series of 9 different concentrations of compound stocks (500×) were created by 3-fold serial dilution in DMSO. […] After 96 hours of incubation, 50 μL of CellTiter Glo reagent (Promega) was added to each well and luminescence was measured after 10 minutes using EnVision (PerkinElmer). […] […] IC50, relative IC50, or % of top inhibition was calculated.

[6] = tested on: KP-4 pancreatic cancer cell line; assay: Cell viability assay (CellTiter Glo), KP-4; assay type: cell-based; settings: for selectivity for KP-4 over A549: KP-4 versus A549
Protocol: as §4

[7] = tested on: A549, MiaPaCa-2, and KP-4; assay: Cell viability assay, comparison across A549, MiaPaCa-2 and KP-4; assay type: cell-based; settings: single agent
Protocol: as §1

KP-4 cells [8] = assay: Effect of ferroptosis or apoptosis inhibitor on RSL3- or Erastin-induced cell death, KP-4; settings: KP-4; for effect on cell death induced by RSL3 or Erastin: co-treatment
Protocol: as §1
Ferroptosis inhibitors include: Ferrostatin-1 and Liproxstatin-1, inhibitors of ROS accumulation; Deferoxamine, an iron chelator; and PD146176, a 15-lipoxygenase inhibitor (see, e.g., Hofman et al., 2016, J Med Chem. March 10; 59(5):2041-53; Yang et al., 2016 Cell 26(3):165-176). The apoptosis inhibitor chosen was ZVAD (see, e.g. Wu et al., 2011, Cell Death and Differentiation 18:26-37). Ferroptosis inhibitors and ZVAD were first titrated as a single agent as shown in Example 1.

Capan-1 cells [9] = assay: Cell viability assay (CellTiter Glo), Capan-1; assay type: cell-based
Protocol: (§5) Cell viability assay was performed to assess the potency of the ferroptosis inducer compounds in various cancer cell lines with K-Ras mutations. […] A series of 9 different concentrations of compound stocks (500×) were created by 3-fold serial dilution in DMSO. […] After 96 hours of incubation, 50 μL of CellTiter Glo reagent (Promega) was added to each well and luminescence was measured after 10 minutes using EnVision (PerkinElmer). […] IC50, relative IC50, or % of top inhibition was calculated. Next, RSL3, ML210, Erastin, and Auranofin were tested on additional K-RAS mutant pancreatic cell lines (Panc1, Panc6.03, Panc2.13, PSN-1, and Capan-1) in Table 1.

[10] = tested on: K-RAS mutant pancreatic cell lines; assay: Cell viability assay, several pancreatic cell lines compared with A549; assay type: cell-based; settings: for potency in the pancreatic cell lines relative to A549 (in words): MiaPaCa-2 and KP-4 versus A549
Protocol: as §5

Panc2.13 cells [11] = assay: Cell viability assay (CellTiter Glo), Panc2.13; assay type: cell-based; settings: Panc2.13 versus A549
Protocol: as §5

PSN-1 cells [12] = assay: Combination proliferation assay with PKC activator, PSN-1; assay type: cell-based
Protocol: as §1, §2

[13] = tested on: MiaPaCa-2 pancreatic cancer cell line; assay: Cell viability assay (CellTiter Glo), MiaPaCa-2; assay type: cell-based; settings: Homo sapiens, MIA PaCa-2, 96 hours of incubation
Protocol: as §4

A549 cells [14] = assay: Effect of ferroptosis or apoptosis inhibitor on RSL3- or Erastin-induced cell death, A549; settings: A549; ZVAD
Protocol: as §1
Ferroptosis inhibitors include: Ferrostatin-1 and Liproxstatin-1, inhibitors of ROS accumulation; Deferoxamine, an iron chelator; and PD146176, a 15-lipoxygenase inhibitor (see, e.g., Hofman et al., 2016, J Med Chem. March 10; 59(5):2041-53; Yang et al., 2016 Cell 26(3):165-176). […]

PSN-1 cells [15] = assay: Cell viability assay (CellTiter Glo), PSN-1; assay type: cell-based; settings: PSN-1; 96 hours of incubation
Protocol: as §5

Compound: CC[P](CC)(CC)=[Au][S]C1OC(COC(C)=O)C(OC(C)=O)C(CC(C)=O)C1OC(C)=O (stereo not shown)
synergy with K101A or K102 to block proliferation (Capan-1 cells [1]): did not synergize | synergy when combined with K101A or K102 (KP-4 cells [2]): no synergy | synergy when combined with K101A or K102 (Mino cell line): moderate synergy | synergy with K101A or K102 to block proliferation (Panc2.13 cells [3]): did not synergize | synergy with K101A or K102 to block proliferation (Panc1 cells; inducer up to 1 μM): No synergistic effects | synergy when combined with K101A or K102 (Namalwa cell line): minor synergy | synergy with K101A or K102 to block proliferation (A549 cells [4]): No synergy

Compound: C=CCNc1nc(NCC=C)nc(N2CCN(C(c3ccc(F)cc3)c3ccc(F)cc3)CC2)n1 [Almitrine]
potency of inhibition of A549 cells (in words) [5]: very weak inhibitors

Compound: CN(C)c1nc(N(C)C)nc(N(C)C)n1 [Altretamine]
potency of inhibition of A549 cells (in words) [5]: very weak inhibitors

Compound: CO[C@H]1O[C@@H]2O[C@@]3(C)CC[C@H]4[C@H](C)CC[C@@H]([C@H]1C)[C@@]24OO3 [Artemether]
selectivity for KP-4 over A549 [6]: > 5 fold

Compound: C[C@H]1[C@H](OC(=O)CCC(=O)O)O[C@@H]2O[C@@]3(C)CC[C@H]4[C@H](C)CC[C@@H]1[C@@]24OO3 [Artesunate]
synergy when combined with K101A or K102 (KP-4 cells [2]): moderate/minor synergy

Compound: CC(=O)N(O)CCCCCNC(=O)CCC(=O)N(O)CCCCCNC(=O)CCC(=O)N(O)CCCCCN [Deferoxamine mesylate]
differential activity among three cell lines [7]: do not show differential activity | potency in blocking cell proliferation (in words) [7]: not potent | effect on RSL3- or Erastin-induced cell death (KP-4 cells [8]; Deferoxamine): did not rescue

Compound: CCOC(=O)c1ccc(NC2CCCCC2)c(N)c1 [Ferrostatin-1]
differential activity among three cell lines [7]: do not show differential activity | potency in blocking cell proliferation (in words) [7]: not potent | effect on cell death induced by RSL3 or Erastin (KP-4 cells [8]; Ferrostatin-1 at 3 μM): completely abrogated cell death

Compound: CC(=O)O[C@@]12C[C@@H](C)[C@@]3(O)[C@@H](C=C(CO)C[C@]4(O)C(=O)C(C)=C[C@@H]34)[C@@H]1C2(C)C [K101A, 12-deoxyphorbol 13-acetate]
% of top inhibition by K101A or K102 without ferroptosis inducer (Panc2.13 cells [3]): ~60%

Compound: C/C=C(/C)C(=O)O[C@H]1C(C)=C[C@]23C(=O)[C@@H](C=C(CO)[C@@H](O)[C@]12O)[C@H]1[C@@H](C[C@H]3C)C1(C)C [K102, ingenol-3-angelate]
% of top inhibition by K101A or K102 without ferroptosis inducer (Panc2.13 cells [3]): ~60%

Compound: Clc1cccc(CN=C2Nc3ccccc3NC23CCNCC3)c1 [Liproxstatin-1]
differential activity among three cell lines [7]: do not show differential activity | potency in blocking cell proliferation (in words) [7]: not potent | effect on cell death induced by RSL3 or Erastin (KP-4 cells [8]; Liproxstatin-1 at 304): completely abrogated cell death

Compound: COc1ccc(N(C(=O)CCl)C(C(=O)NCCc2ccccc2)c2cccs2)cc1Cl (stereo not shown) [ML162]
selectivity for KP-4 over A549 [6]: > 80 fold

Compound: Cc1onc(C(=O)N2CCN(C(c3ccc(Cl)cc3)c3ccc(Cl)cc3)CC2)c1[N+](=O)[O-] [ML210]
% of top inhibition by K101A or K102 in combination with the ferroptosis inducer (Capan-1 cells [1]): ~80% | effect on the potency of K101A or K102 (Capan-1 cells [1]): increased the potency | synergy with K101A or K102 to block proliferation (Capan-1 cells [1]): synergized strongly | synergy when combined with K101A or K102 (KP-4 cells [2]): no synergy | selectivity in comparison to A549 (Capan-1 cells [9]; Capan-1 versus A549): no selectivity | synergy when combined with K101A or K102 (Mino cell line): minor synergy | % of top inhibition by K101A or K102 in combination with the ferroptosis inducer (Panc2.13 cells [3]): ~80% | effect on the potency of K101A or K102 (Panc2.13 cells [3]): increased the potency | synergy with K101A or K102 to block proliferation (Panc2.13 cells [3]): synergized | effect on the potency of K101A or K102 (Panc1 cells): increasing the potency | synergy with K101A or K102 to block proliferation (Panc1 cells): synergized | potency in the pancreatic cell lines relative to A549 (in words) [10]: at least two orders of magnitude more potent | sensitivity in comparison to A549 ([10]; range over Panc1, Panc6.03, and PSN-1): 8-30 fold | selectivity in comparison to A549 (Panc2.13 cells [11]): no selectivity | synergy with K101A or K102 to block proliferation (A549 cells [4]): minor synergy | synergy with K101A (PKC activators) to block proliferation (PSN-1 cells [12]): synergized

Compound: c1ccc2c(c1)SCc1c-2[nH]c2ccccc12 [PD146176]
differential activity among three cell lines [7]: do not show differential activity | potency in blocking cell proliferation (in words) [7]: not potent | effect on RSL3- or Erastin-induced cell death (KP-4 cells [8]; PD146176 at 0.504): partially reversed

IC50 [13]: 8 nM | IC50 ([6]; Pancreatic cancer cell, KP-4, 96 hours of incubation): 2 nM | IC50 ([5]; Homo sapiens, A549 lung cancer cell line, 96 hours of incubation): 1880 nM
Compound: COC(=O)c1ccc([C@H]2c3[nH]c4ccccc4c3C[C@H](C(=O)OC)N2C(=O)CCl)cc1 [RSL3]
% of top inhibition by K101A or K102 in combination with the ferroptosis inducer (Capan-1 cells [1]): ~80% | effect on the potency of K101A or K102 (Capan-1 cells [1]): increased the potency | synergy with K101A or K102 to block proliferation (Capan-1 cells [1]): synergized strongly | synergy when combined with K101A or K102 (KP-4 cells [2]): only additive effects | % of top inhibition by K101A or K102 in combination with the ferroptosis inducer (Panc2.13 cells [3]): ~80% | effect on the potency of K101A or K102 (Panc2.13 cells [3]): increased the potency | synergy with K101A or K102 to block proliferation (Panc2.13 cells [3]): synergized | effect on the potency of K101A or K102 (Panc1 cells): increasing the potency | synergy with K101A or K102 to block proliferation (Panc1 cells): synergized | effect of addition to K101A or K102 on potency and % of top inhibition (Namalwa cell line): improved potency and % of top inhibition | potency in the pancreatic cell lines relative to A549 (in words) [10]: two to three orders of magnitude more potent | selective cell death in comparison to A549 ([10]; range over all five lines Panc1, Panc6.03, Panc2.13, PSN-1, Capan-1): 2-26 fold | synergy with K101A or K102 to block proliferation (A549 cells [4]): synergized strongly | synergy with K101A (PKC activators) to block proliferation (PSN-1 cells [12]): synergized

Compound: O=C(O)c1cc(/N=N/c2ccc(S(=O)(=O)Nc3ccccn3)cc2)ccc1O [Sulfasalazine]
synergy with K101A or K102 to block proliferation (Panc2.13 cells [3]): did not synergize | synergy with K101A or K102 to block proliferation (A549 cells [4]): No synergy

Compound: Buthionine sulfoximine [BSO]
effect on A549 cells ([5]; at very high concentration (>1 mM)): minimal effects

Compound: Cbz-Val-Ala-Asp-CH2F
differential activity among three cell lines [7]: do not show differential activity | potency in blocking cell proliferation (in words) [7]: not potent | effect on RSL3- or Erastin-induced cell death (KP-4 cells [8]; ZVAD at 30 μM): did not rescue | effect on RSL3- or Erastin-induced cell death (A549 cells [14]): did not rescue

Compound: Dihydroartemisinin
IC50 (PSN-1 cells [15]): 540 nM | synergy when combined with K101A or K102 (KP-4 cells [2]): moderate/minor synergy | IC50 (Capan-1 cells [9]; Capan-1, 96 hours of incubation): 2150 nM | synergy with K101A (PKC activators) to block proliferation (PSN-1 cells [12]): no synergy
